These results are taken from article PMC11997999, “Uncovering α-Selectivity for Liver X Receptor Agonists for Lipotoxic Cancer Therapies” (Journal of Medicinal Chemistry, 2025).

Like-named read-outs stand apart in the source and are kept apart here. Bounds are passed on as bounds.

In one experiment the test system is Hep3B cells. The experiment is described as follows: Cell viability analysis in Hep3B cells (CellTiter-Glo). It is filed as cell-based, human. The settings on record: 5 d, 2 μM. How it is done: To determine the therapeutic efficacy of compound 40 in HCC cells, we next tested its effect on Hep3B cell viability in combination with the DFG-out Raf inhibitor sorafenib (2 μM).
For organoid treatment studies, digestion of organoids was performed using TrypLE Express (Gibco) supplemented with 100 μg/mL DNaseI and 10.5 μM Y-27632 dihydrochloride (Invitrogen) at 37 °C, and afterward, single-cells were plated in white 96 well plates (Sarstedt) in a mixture of 10% Matrigel (Growth Factor Reduced (GFR) Matrigel, Corning) in culture medium. Cell viability was determined after 5 days of treatment using the CellTiter-Glo 3D Cell Viability Assay Kit (Promega). Cell viability of Hep3B, AML12, and BNL CL.2 cells was determined after 5 days of treatment in white 96 well plates (Sarstedt) using the CellTiter-Glo 2.0 Cell Viability Assay Kit (Promega). AML12 and BNL CL.2 cells were also obtained from the American Type Culture Collection. The luminescence signal was measured using an […] M PLEX plate reader (Tecan) and the Tecan i-control software (v3.9.1). Sodium oleate (Selleckchem) was dissolved in methanol and added to cells at a final concentration of 200 μM.
(Cellular ATP, detected with luciferase, serves as a proxy for viable cell number.)

A further experiment concerns the target T1, LXRα LBD (GST) (Homo sapiens, UniProt Q13133).
T1 construct: 5 nM LXRα LBD (GST); 10 nM LXRβ LBD (GST); purchased ThermoFisher Scientific PV4655
T1 sequence (Q13133 209-447 limits assumed): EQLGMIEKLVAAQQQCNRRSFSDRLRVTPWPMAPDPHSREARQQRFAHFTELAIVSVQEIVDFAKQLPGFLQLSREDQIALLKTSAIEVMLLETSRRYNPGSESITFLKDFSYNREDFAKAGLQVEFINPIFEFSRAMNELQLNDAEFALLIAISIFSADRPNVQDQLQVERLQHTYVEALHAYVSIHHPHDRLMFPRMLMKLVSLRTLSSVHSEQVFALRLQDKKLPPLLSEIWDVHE
The experiment can be described thus: Time-resolved LXR FRET assay (LanthaScreen TR-FRET LXRα Coactivator Assay Kit). It is filed as biochemical. The settings on record: for TR-FRET activity on LXRα, in words: statement made for both isoforms. How it is done: (§1) The biochemical TR-FRET assays were performed using the LanthaScreen TR-FRET LXRα Coactivator Assay Kit, goat (ThermoFisher Scientific, PV4655), and the LanthaScreen TR-FRET LXRβ assay kit, goat (ThermoFisher Scientific, PV4658), according to the manufacturer’s instructions using the following concentrations: 5 nM LXRα LBD (GST); 10 nM LXRβ LBD (GST); 500 nM fluorescein-TRAP220/DRIP-2; 200 nM fluorescein-D22; 10 nM Tb anti-GST antibody. The TR-FRET signals were measured after 6 h using a TECAN SPARK multimode microplate reader with the following settings: first excitation wavelength: 360 nm (bandwidth 35 nm), first emission wavelength: 485 nm (bandwidth 20 nm); second excitation wavelength: 360 nm (bandwidth 35 nm), second emission wavelength: 535 nm (bandwidth 25 nm); integration time: 200 μs; lag time: 100 μs; settle time: 0 ms.

A further experiment concerns the target T2, LXRβ LBD (GST) (Homo sapiens, UniProt P55055).
T2 construct: 5 nM LXRα LBD (GST); 10 nM LXRβ LBD (GST); purchased ThermoFisher Scientific PV4658
T2 sequence (P55055 222-460 limits assumed): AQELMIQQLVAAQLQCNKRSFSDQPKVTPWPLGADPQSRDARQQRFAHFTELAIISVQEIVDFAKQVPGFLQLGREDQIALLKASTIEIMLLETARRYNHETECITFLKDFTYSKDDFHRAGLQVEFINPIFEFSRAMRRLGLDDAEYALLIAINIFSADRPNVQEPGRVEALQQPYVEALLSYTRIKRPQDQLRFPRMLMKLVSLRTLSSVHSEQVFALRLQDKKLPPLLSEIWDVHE
The experiment can be described thus: Time-resolved LXR FRET assay (LanthaScreen TR-FRET LXRβ assay kit). Type of experiment: biochemical. The settings on record: for TR-FRET activity on LXRβ, in words: statement made for both isoforms. How it is done: as §1
(In TR-FRET formats the signal depends on donor and acceptor labels being close together.)

The next experiment has as its target T3, LXRα (Homo sapiens, UniProt Q13133).
T3 construct: To measure the activity of the remaining isoform under treatment; endogenous in cells; host or cells: Hep3B (NR1H2 knockout, LXRE-GFP reporter)
T3 sequence (Q13133 1-447): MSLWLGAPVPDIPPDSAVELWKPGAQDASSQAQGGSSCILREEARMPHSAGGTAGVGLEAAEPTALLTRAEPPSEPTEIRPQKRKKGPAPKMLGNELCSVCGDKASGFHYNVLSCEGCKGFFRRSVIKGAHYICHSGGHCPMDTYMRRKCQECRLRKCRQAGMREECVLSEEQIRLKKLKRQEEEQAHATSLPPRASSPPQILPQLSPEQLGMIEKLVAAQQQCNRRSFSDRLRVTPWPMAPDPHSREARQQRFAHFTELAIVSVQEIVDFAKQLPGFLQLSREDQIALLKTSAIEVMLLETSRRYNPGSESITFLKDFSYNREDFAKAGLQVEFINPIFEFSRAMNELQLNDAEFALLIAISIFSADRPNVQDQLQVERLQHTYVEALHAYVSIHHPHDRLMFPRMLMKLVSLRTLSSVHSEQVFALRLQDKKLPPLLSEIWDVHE
The experiment is described as follows: LXRα-specific LXRE-GFP reporter assay in Hep3B cells (NR1H2 knockout). The settings on record: 48h of treatment, GFP by FACS. It is filed as cell-based.

The next experiment addresses T4, LXRβ (Homo sapiens, UniProt P55055).
T4 construct: To measure the activity of the remaining isoform under treatment; endogenous in cells; host or cells: Hep3B (NR1H3 knockout, LXRE-GFP reporter)
T4 sequence (P55055 1-460): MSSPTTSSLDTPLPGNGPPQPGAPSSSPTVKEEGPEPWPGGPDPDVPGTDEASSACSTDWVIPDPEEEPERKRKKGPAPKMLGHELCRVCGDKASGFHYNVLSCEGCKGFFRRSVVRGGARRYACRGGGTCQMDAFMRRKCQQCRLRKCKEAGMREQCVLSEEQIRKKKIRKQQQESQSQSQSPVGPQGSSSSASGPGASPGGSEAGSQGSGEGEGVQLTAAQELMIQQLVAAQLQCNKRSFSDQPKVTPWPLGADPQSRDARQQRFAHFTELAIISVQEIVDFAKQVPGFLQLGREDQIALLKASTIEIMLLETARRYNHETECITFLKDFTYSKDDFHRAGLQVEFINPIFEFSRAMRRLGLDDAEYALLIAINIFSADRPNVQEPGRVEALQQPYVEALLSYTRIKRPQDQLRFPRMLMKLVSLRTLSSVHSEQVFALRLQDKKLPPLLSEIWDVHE
The experiment can be described thus: LXRβ-specific LXRE-GFP reporter assay in Hep3B cells (NR1H3 knockout). Type of experiment: cell-based. The settings on record: 48h of treatment, GFP by FACS. (A reporter such as luciferase makes a cellular process visible.)

[1] abbreviates: 5 nM LXRα LBD (GST), read after 6 h, R^2 of fit given, read-out: TR-FRET activity (EC50) LXRα.
Setting [2] is: 10 nM LXRβ LBD (GST), read after 6 h, R^2 of fit given, read-out: TR-FRET activity (EC50) LXRβ.
The mark [3] stands for this setting: supplement list of compounds, LXRα, unit inferred, read-out: FRET activity a.
Setting [4] is: supplement list of compounds, (LXRβ), unit inferred, read-out: FRET activity b.

With `CNC(=O)c1cc(Oc2ccc(NC(=O)Nc3ccc(Cl)c(C(F)(F)F)c3)cc2)ccn1` [sorafenib, reference compound], the “therapeutic effect on cell viability, sorafenib monotherapy” value in the experiment on Hep3B cells was “only a low therapeutic effect”.
Turning to `NC1CCN(c2ccc(NC3=C(c4ccccc4)C(=O)N(Cc4ccccc4)C3=O)cc2)CC1` [Compound 46, 3-((4-(4-Aminopiperidin-1-yl)phenyl)amino)-1-benzyl-4-phenyl-1H-pyrrole-2,5-dione], the EC50 at LXRα LBD (GST) (setting [1]) amounted to 630 nM; at LXRβ LBD (GST) (setting [2]), 120 nM; at LXRα, 1480 nM; at LXRβ, 1250 nM.
In the same order, the values of `COc1ccc(NC2=C(c3ccccc3)C(=O)N(Cc3ccccc3)C2=O)cc1` [GSK3987 (3), 1-Benzyl-3-((4-methoxyphenyl)amino)-4-phenyl-1H-pyrrole-2,5-dione, reference compound] are 154 nM, 180 nM, 99 nM and 248 nM.
Turning to `CN1CCN(c2ccc(NC3=C(c4ccccc4)C(=O)N(Cc4ccccc4)C3=O)cc2)CC1` [Compound 44, 1-Benzyl-3-((4-(4-methylpiperazin-1-yl)phenyl)amino)-4-phenyl-1H-pyrrole-2,5-dione], the “TR-FRET activity on LXRα, in words” value on LXRα LBD (GST) was “no relevant activity”. Moreover, the figures for the EC50 at LXRα LBD (GST) (setting [3]) and at LXRβ LBD (GST) (setting [4]) were 379 nM and 657 nM, respectively. Moreover, the “TR-FRET activity on LXRβ, in words” value at LXRβ LBD (GST) was “no relevant activity”.
Regarding `CN(C)c1ccc(NC2=C(c3ccccc3)C(=O)N(Cc3ccccc3)C2=O)cc1` [Compound 35, 1-Benzyl-3-((4-(dimethylamino)phenyl)amino)-4-phenyl-1H-pyrrole-2,5-dione], the EC50 at LXRα LBD (GST) (setting [1]) was determined as 71 nM; on LXRβ LBD (GST) (setting [2]), 91 nM.
For `CC(C)(C)OC(=O)NC1CCN(c2ccc(NC3=C(c4ccccc4)C(=O)N(Cc4ccccc4)C3=O)cc2)CC1` [Compound 45, tert-Butyl-(1-(4-((1-benzyl-2,5-dioxo-4-phenyl-2,5-dihydro-1H-pyrrol-3-yl)amino)phenyl)piperidin-4-yl)carbamate], the “TR-FRET activity on LXRα, in words” value at LXRα LBD (GST) is listed as “abolished all activity”. Also, the EC50 on LXRα LBD (GST) (setting [3]) and at LXRβ LBD (GST) (setting [4]) was greater than 3000 nM throughout. At LXRβ LBD (GST), the “TR-FRET activity on LXRβ, in words” value was “abolished all activity”.
Consider `COc1ccc(NC2=C(c3ccccc3)C(=O)N(Cc3ccc(C(F)(F)F)cc3)C2=O)cc1` [Compound 18, 3-((4-Methoxyphenyl)amino)-4-phenyl-1-(4-(trifluoromethyl)benzyl)-1H-pyrrole-2,5-dione], for which the EC50 at LXRα LBD (GST) (setting [1]) and on LXRβ LBD (GST) (setting [2]) was greater than 3000 nM in each case. At LXRα LBD (GST), the “TR-FRET activity on LXRα, in words” value is reported as “completely lost potency”. Further, the “TR-FRET activity on LXRβ, in words” value on LXRβ LBD (GST) was “completely lost potency”.
In the case of `O=C1C(Nc2ccc(N3CCOCC3)cc2)=C(c2ccccc2)C(=O)N1Cc1ccccc1` [Compound 41, 1-Benzyl-3-((4-morpholinophenyl)amino)-4-phenyl-1H-pyrrole-2,5-dione], the EC50 at LXRα LBD (GST) (setting [1]) was determined as 35 nM; at LXRβ LBD (GST) (setting [2]) it was 106 nM.
Turning to `O=C1C(Nc2ccc(F)cc2)=C(c2ccccc2)C(=O)N1Cc1ccccc1` [Compound 31, 1-Benzyl-3-((4-fluorophenyl)amino)-4-phenyl-1H-pyrrole-2,5-dione], the EC50 at LXRα LBD (GST) (setting [1]) was determined as 335 nM; on LXRβ LBD (GST) (setting [2]) it was 548 nM.
As to `CC(C)(C)N1C(=O)C(Nc2ccc(N3CCCCC3)cc2)=C(c2ccccc2)C1=O` [Compound 51, 1-(tert-Butyl)-3-phenyl-4-((4-(piperidin-1-yl)phenyl)amino)-1H-pyrrole-2,5-dione], the EC50 at LXRα LBD (GST) (setting [1]) worked out at 36 nM; at LXRβ LBD (GST) (setting [2]) it was 156 nM; at LXRα, 19 nM; at LXRβ, 113 nM.
With `COc1ccc(CN2C(=O)C(Nc3ccc(OC)cc3)=C(c3ccccc3)C2=O)cc1` [Compound 19, 1-(4-Methoxybenzyl)-3-((4-methoxyphenyl)amino)-4-phenyl-1H-pyrrole-2,5-dione], the EC50 amounted to 518 nM at LXRα LBD (GST) (setting [1]) and 592 nM on LXRβ LBD (GST) (setting [2]).
